Data reported in the NIST ThermoML archive (doi:10.1016/j.fluid.2014.11.020).
Numbers after ± are expanded uncertainties.

Test: activity coefficient (dimensionless); of the first substance listed, at infinite dilution; xn = mol fraction of the nth substance listed
Settings: Liquid, Chromatography, x1 = 0

Row | SMILES | activity coefficient (323.15 K) | activity coefficient (333.15 K) | activity coefficient (343.15 K)
1 | CC1CCCC1 [methylcyclopentane] + CCCOC[n+]1ccn(Cc2ccccc2)c1.N#C[N-]C#N | 15.7 ± 1.1 | 15.2 ± 1 | 13.5 ± 0.92
2 | CC(C)OC(C)C [diisopropyl ether] + CCCOC[n+]1ccn(Cc2ccccc2)c1.N#C[N-]C#N | 12.8 ± 0.87 | 12.1 ± 0.83 | 12 ± 0.82
3 | c1ccncc1 [pyridine] + CCCCCCCCn1cc[n+](COCCCOC[n+]2ccn(CCCCCCCC)c2C)c1C.O=S(=O)([N-]S(=O)(=O)C(F)(F)F)C(F)(F)F.O=S(=O)([N-]S(=O)(=O)C(F)(F)F)C(F)(F)F | 0.13 ± 0.03 | 0.14 ± 0.03 | 0.15 ± 0.03
4 | CCCCCCCCCC [decane] + CCCOC[n+]1ccn(Cc2ccccc2)c1.F[B-](F)(F)F | 244 ± 17 | 220 ± 15 | 178 ± 12
5 | ClC(Cl)(Cl)Cl [tetrachloromethane] + CCCOC[n+]1ccc(N(C)C)cc1.O=S(=O)([N-]S(=O)(=O)C(F)(F)F)C(F)(F)F | 2.01 ± 0.14 | 2.08 ± 0.14 | 1.95 ± 0.13
6 | C1CCCCC1 [cyclohexane] + Cn1cc[n+](COCCCOC[n+]2ccn(C)c2)c1.O=S(=O)([N-]S(=O)(=O)C(F)(F)F)C(F)(F)F.O=S(=O)([N-]S(=O)(=O)C(F)(F)F)C(F)(F)F | 17.6 ± 1.2 | 12.4 ± 0.85 | –
7 | CC(C)O [propan-2-ol] + CCCOC[n+]1ccc(N(C)C)cc1.O=S(=O)([N-]S(=O)(=O)C(F)(F)F)C(F)(F)F | 1.7 ± 0.11 | 1.62 ± 0.11 | 1.45 ± 0.1
8 | C[N+](=O)[O-] [nitromethane] + CCCOC[n+]1ccc(N(C)C)cc1.O=S(=O)([N-]S(=O)(=O)C(F)(F)F)C(F)(F)F | 0.54 ± 0.04 | 0.55 ± 0.04 | 0.54 ± 0.04
9 | CC(C)OC(C)C [diisopropyl ether] + CCCCCCCCn1cc[n+](COCCC)c1C.N#C[N-]C#N | 4.17 ± 0.28 | 4.05 ± 0.28 | –
10 | Cc1ccc(C)cc1 [1,4-dimethylbenzene] + CCCOC[n+]1ccn(C)c1.F[B-](F)(F)F | 10.7 ± 0.73 | 10.3 ± 0.7 | 10.2 ± 0.7
11 | CCCCCCCCCCCC [dodecane] + CCCOC[n+]1ccn(C)c1.O=S(=O)([N-]S(=O)(=O)C(F)(F)F)C(F)(F)F | 132 ± 9.1 | 118 ± 8.1 | 105 ± 7.2
12 | CC(C)CO [2-methyl-1-propanol] + N#C[N-]C#N.N#C[N-]C#N.c1ccc(Cn2cc[n+](COCCCOC[n+]3ccn(Cc4ccccc4)c3)c2)cc1 | 1.79 ± 0.12 | 1.67 ± 0.11 | 1.61 ± 0.11
13 | ClC(Cl)Cl [trichloromethane] + CCCCCCCCn1cc[n+](COCCC)c1C.O=S(=O)([N-]S(=O)(=O)C(F)(F)F)C(F)(F)F | 0.51 ± 0.04 | 0.49 ± 0.04 | 0.53 ± 0.04
14 | C#CCCCCC [1-heptyne] + CCCCCCCCn1cc[n+](COCCCOC[n+]2ccn(CCCCCCCC)c2C)c1C.N#C[N-]C#N.N#C[N-]C#N | 2.1 ± 0.14 | 2.12 ± 0.14 | 2.15 ± 0.15
15 | CCC(=O)CC [pentan-3-one] + CCCOC[n+]1ccn(C)c1.F[B-](F)(F)F | 3.34 ± 0.23 | 3.36 ± 0.23 | 3.41 ± 0.23
16 | CCOCC [diethyl ether] + CCCCCCCCn1cc[n+](COCCC)c1C.O=S(=O)([N-]S(=O)(=O)C(F)(F)F)C(F)(F)F | 1.13 ± 0.07 | 1.11 ± 0.07 | –
17 | CC(C)CO [2-methyl-1-propanol] + CCCOC[n+]1ccn(C)c1.N#C[N-]C#N | 1.29 ± 0.08 | 1.25 ± 0.08 | 1.21 ± 0.08
18 | Cc1cccc(C)c1 [1,3-dimethylbenzene] + Cn1cc[n+](COCCCOC[n+]2ccn(C)c2)c1.N#C[N-]C#N.N#C[N-]C#N | 10.9 ± 0.75 | 10.7 ± 0.73 | 10.5 ± 0.72
19 | CC#N [acetonitrile] + CCCCCCCCn1cc[n+](COCCCOC[n+]2ccn(CCCCCCCC)c2C)c1C.O=S(=O)([N-]S(=O)(=O)C(F)(F)F)C(F)(F)F.O=S(=O)([N-]S(=O)(=O)C(F)(F)F)C(F)(F)F | 0.26 ± 0.03 | 0.25 ± 0.03 | 0.25 ± 0.03
20 | c1ccncc1 [pyridine] + CCCOC[n+]1ccn(C)c1.N#C[N-]C#N | 0.91 ± 0.06 | 0.93 ± 0.06 | 0.97 ± 0.06
21 | Cc1ccccc1 [toluene] + Cn1cc[n+](COCCCOC[n+]2ccn(C)c2)c1.N#C[N-]C#N.N#C[N-]C#N | 5.63 ± 0.38 | 5.58 ± 0.38 | 5.49 ± 0.37
22 | Cc1ccccc1 [toluene] + Cn1cc[n+](COCCCOC[n+]2ccn(C)c2)c1.O=S(=O)([N-]S(=O)(=O)C(F)(F)F)C(F)(F)F.O=S(=O)([N-]S(=O)(=O)C(F)(F)F)C(F)(F)F | 1.46 ± 0.1 | 1.48 ± 0.1 | 1.46 ± 0.1
23 | c1ccncc1 [pyridine] + Cn1cc[n+](COCCCOC[n+]2ccn(C)c2)c1.O=S(=O)([N-]S(=O)(=O)C(F)(F)F)C(F)(F)F.O=S(=O)([N-]S(=O)(=O)C(F)(F)F)C(F)(F)F | 0.4 ± 0.03 | 0.41 ± 0.03 | 0.41 ± 0.03

Row | SMILES | activity coefficient (323.15 K) | activity coefficient (333.15 K) | activity coefficient (343.15 K)
24 | CCCCCCCCCCCCC [tridecane] + CCCOC[n+]1ccn(C)c1.N#C[N-]C#N | 1150 ± 79 | 1030 ± 71 | 916 ± 63
25 | CC1CCCC1 [methylcyclopentane] + CCCOC[n+]1ccn(Cc2ccccc2)c1.O=S(=O)([N-]S(=O)(=O)C(F)(F)F)C(F)(F)F | 5.48 ± 0.37 | 4.46 ± 0.3 | 4.02 ± 0.27
26 | C#CCCCCC [1-heptyne] + CCCCCCCCn1cc[n+](COCCC)c1C.N#C[N-]C#N | 2.11 ± 0.14 | 2.09 ± 0.14 | –
27 | ClC(Cl)Cl [trichloromethane] + CN(C)c1cc[n+](COCCCOC[n+]2ccc(N(C)C)cc2)cc1.O=S(=O)([N-]S(=O)(=O)C(F)(F)F)C(F)(F)F.O=S(=O)([N-]S(=O)(=O)C(F)(F)F)C(F)(F)F | 0.67 ± 0.05 | 0.69 ± 0.05 | 0.7 ± 0.05
28 | CCN(CC)CC [triethylamine] + CCCCCCCCn1cc[n+](COCCC)c1C.O=S(=O)([N-]S(=O)(=O)C(F)(F)F)C(F)(F)F | 1.2 ± 0.08 | – | –
29 | ClC(Cl)Cl [trichloromethane] + CCCOC[n+]1ccc(N(C)C)cc1.O=S(=O)([N-]S(=O)(=O)C(F)(F)F)C(F)(F)F | 0.71 ± 0.05 | 0.75 ± 0.05 | 0.79 ± 0.05
30 | C[N+](=O)[O-] [nitromethane] + CCCOC[n+]1ccn(Cc2ccccc2)c1.N#C[N-]C#N | 1.06 ± 0.07 | 0.71 ± 0.05 | 0.72 ± 0.05
31 | CCCC(C)=O [pentan-2-one] + N#C[N-]C#N.N#C[N-]C#N.c1ccc(Cn2cc[n+](COCCCOC[n+]3ccn(Cc4ccccc4)c3)c2)cc1 | 3.1 ± 0.21 | 3.05 ± 0.21 | 3.08 ± 0.21
32 | CCC[N+](=O)[O-] [1-nitropropane] + CCCCCCCCn1cc[n+](COCCCOC[n+]2ccn(CCCCCCCC)c2C)c1C.O=S(=O)([N-]S(=O)(=O)C(F)(F)F)C(F)(F)F.O=S(=O)([N-]S(=O)(=O)C(F)(F)F)C(F)(F)F | 0.34 ± 0.03 | 0.33 ± 0.03 | 0.32 ± 0.03
33 | C1CCCCC1 [cyclohexane] + CCCOC[n+]1ccn(C)c1.O=S(=O)([N-]S(=O)(=O)C(F)(F)F)C(F)(F)F | 9.55 ± 0.65 | 9.25 ± 0.63 | 9.07 ± 0.62
34 | CCC[N+](=O)[O-] [1-nitropropane] + CCCOC[n+]1ccn(Cc2ccccc2)c1.N#C[N-]C#N | 1.04 ± 0.07 | 1.06 ± 0.07 | 1.06 ± 0.07
35 | CCCCCCCCCCC [undecane] + CCCOC[n+]1ccn(Cc2ccccc2)c1.F[B-](F)(F)F | 352 ± 24 | 301 ± 21 | 286 ± 20
36 | CC(C)O [propan-2-ol] + CCCOC[n+]1ccn(Cc2ccccc2)c1.F[B-](F)(F)F | 2.19 ± 0.15 | 1.96 ± 0.13 | 1.81 ± 0.12
37 | Cc1ccccc1 [toluene] + CCCCCCCCn1cc[n+](COCCCOC[n+]2ccn(CCCCCCCC)c2C)c1C.N#C[N-]C#N.N#C[N-]C#N | 0.94 ± 0.06 | 0.95 ± 0.06 | 0.97 ± 0.06
38 | c1ccncc1 [pyridine] + CCCCCCCCn1cc[n+](COCCC)c1C.O=S(=O)([N-]S(=O)(=O)C(F)(F)F)C(F)(F)F | 0.35 ± 0.03 | 0.34 ± 0.03 | 0.3 ± 0.03
39 | CCC(C)CC [3-methylpentane] + CCCOC[n+]1ccn(Cc2ccccc2)c1.O=S(=O)([N-]S(=O)(=O)C(F)(F)F)C(F)(F)F | 8.01 ± 0.55 | 6.59 ± 0.45 | 5.91 ± 0.4
40 | CCc1ccccc1 [ethylbenzene] + CCCOC[n+]1ccc(N(C)C)cc1.O=S(=O)([N-]S(=O)(=O)C(F)(F)F)C(F)(F)F | 1.45 ± 0.1 | 1.53 ± 0.1 | 1.53 ± 0.1
41 | CC(C)OC(C)C [diisopropyl ether] + CCCCCCCCn1cc[n+](COCCC)c1C.O=S(=O)([N-]S(=O)(=O)C(F)(F)F)C(F)(F)F | 1.95 ± 0.13 | 1.86 ± 0.13 | 1.82 ± 0.12
42 | CCCCCCCCCC [decane] + CCCCCCCCn1cc[n+](COCCC)c1C.O=S(=O)([N-]S(=O)(=O)C(F)(F)F)C(F)(F)F | 8.9 ± 0.61 | 8.47 ± 0.58 | 7.92 ± 0.54
43 | CCCO [propan-1-ol] + Cn1cc[n+](COCCCOC[n+]2ccn(C)c2)c1.N#C[N-]C#N.N#C[N-]C#N | 1.22 ± 0.08 | 1.17 ± 0.07 | 1.1 ± 0.07
44 | Cc1ccc(C)cc1 [1,4-dimethylbenzene] + Cn1cc[n+](COCCCOC[n+]2ccn(C)c2)c1.N#C[N-]C#N.N#C[N-]C#N | 10.5 ± 0.72 | 10.2 ± 0.69 | 9.96 ± 0.68
45 | CCCCO [butan-1-ol] + CCCOC[n+]1ccn(C)c1.O=S(=O)([N-]S(=O)(=O)C(F)(F)F)C(F)(F)F | 2.37 ± 0.16 | 2.09 ± 0.14 | 1.89 ± 0.13
